Legend:
Format in all cases: cell-based
[1] = tested on: Jurkat T-cell leukemic cells; assay: Cell cycle assay, flow cytometry with propidium iodide, Example 126; details: 24 h, 0.5% serum, Table 2
Experimental: (§1) MCF-7 breast cancer cells and Jurkat T-cell leukemic cells were grown (and maintained) in EMEM and RPMI media, respectively, containing 10% fetal calf serum.
Test agents were added a concentration of 0.1 μM. Twenty-fours after test agent addition, cells were analyzed for cell cycle status as described below.
(§2) Cell cycle status was analyzed by flow cytometry. Briefly, cells were collected and washed with FACs buffer (Pharmingen) and resuspended and fixed in 1 mL of 80% ethanol for 1 hr. Cells were washed with FACs buffer and resuspended in propidium iodide(PI)/RNase staining buffer (Pharmingen). PI is a fluorescent dye that labels nucleic acids such as DNA. The fluorescence within a cell (in the presence of PI) is proportional to the amount of DNA within a cell. The cell content of DNA is an indices of status in the cell cycle. […] Cells in the S phase have DNA content that lies between these extremes.
(§3) For testing of cell cycle effects of test agents the percentage of cells within the G1 and G2/M phase were measured.

[2] = tested on: MCF-7 breast cancer cells; assay: as above; details: MCF-7 cells, 24 h, 0.5% FCS, Table 2
Experimental: as §1
Cells were allowed to adhere for 24 hrs. After adherence, cell culture media was changed to that containing 0.5% FCS. Thirty minutes post-media change, test compounds were added at a concentration of 1 μM. Twenty-fours after test agent addition, cells were analyzed for cell cycle status as described below.
as §2, §3

Hela cells = assay: Cell viability assay (WST-1 colorimetric mitochondrial reduction), Example 125; details: Homo sapiens, 0.5% fetal calf serum, 48-72 hrs
Experimental: Jurkat and Hela cells were cultured in RPMI and EMEM media, respectively, containing 0.5% fetal calf serum. Cells were plated in a volume of 100 μL in a 96 well format. Test compounds were included in the culture media at concentrations ranging from 1 nM to 10 μM for a period of 48-72 hrs. […] Briefly, 10 μL of WST-1 reagent was included in the culture well for a period of 1 to 4 hrs. The WST-1 reaction was read on a multiwell spectrophotometer as the difference in the absorbance between 450 nm and 600 nm (baseline). Absorbance was proportional to the number of living cells in the culture well. Concentration response curves and IC50 values were calculated using GraphPAD Prism graphing and curve fitting program.

SMILES | Jurkat G2/M Block 0.1 μM [1] | MCF-7 G2/M Block 1 μM [2] | IC50 (Hela cells)
[O-][n+]1cccc(Nc2cc(O)cc(-c3cccc4[nH]ccc34)c2)c1 [3-(1H-Indol-4-yl)-5-(1-oxy-pyridin-3-ylamino)-phenol] | Y (Y indicates a 50% or greater increase in the number of cells in the G2/M phase, as compared to control) | Y (Y indicates a 50% or greater increase in the number of cells in the G2/M phase, as compared to control) | 
CC(=O)N(c1cccnc1)c1cccc(-c2cccc3[nH]ccc23)c1 [N-[3-(1H-Indol-4-yl)-phenyl]-N-pyridin-3-yl-acetamide] |  |  | 1 to 30 µM

Source: patent US7504401B2, “Anti-cancer agents and uses thereof” (Locus Pharmaceuticals, Inc., priority 2003, dated 2009)
